Laboratory results published in patent publication US20190201419A1, “COMPOUND AND METHOD FOR THE TREATMENT AND DIAGNOSIS OF NEURODEGENERATIVE CONDITIONS” (Swansea University, priority 2013, published 2019).

Experiments:
Lxrα = biological target: T1, Lxrα (Homo sapiens, UniProt Q13133); experiment: Lxrα luciferase reporter assay in SN4741 neural cells; type: cell-based, mouse; conditions: for Lxrα activation, luciferase activity (fold activation): 10 μM, 24 h
T1 construct: expressed in transfected cells; host or cells: SN4741 mouse neuronal cell line
T1 sequence (Q13133 1-447): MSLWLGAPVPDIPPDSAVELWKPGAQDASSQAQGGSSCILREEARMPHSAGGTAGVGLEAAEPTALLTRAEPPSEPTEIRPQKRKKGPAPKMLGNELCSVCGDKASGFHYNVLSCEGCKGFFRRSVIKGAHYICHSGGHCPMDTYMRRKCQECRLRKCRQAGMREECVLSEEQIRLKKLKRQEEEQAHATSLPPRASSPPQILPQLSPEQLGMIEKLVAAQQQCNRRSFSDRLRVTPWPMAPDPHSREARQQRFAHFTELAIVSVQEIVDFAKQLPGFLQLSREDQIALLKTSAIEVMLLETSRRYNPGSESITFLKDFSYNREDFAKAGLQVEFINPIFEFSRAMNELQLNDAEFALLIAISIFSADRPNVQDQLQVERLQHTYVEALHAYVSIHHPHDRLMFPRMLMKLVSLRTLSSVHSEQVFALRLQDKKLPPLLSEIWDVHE
Excerpt: (§1) Luciferase Reporter Assay.

Lxrβ = biological target: T2, Lxrβ (Homo sapiens, UniProt P55055); experiment: Lxrβ luciferase reporter assay in SN4741 neural cells; type: cell-based, mouse; conditions: SN4741 cells, 10 μM, 24 h
T2 construct: expressed in transfected cells; host or cells: SN4741 mouse neuronal cell line
T2 sequence (P55055 1-460): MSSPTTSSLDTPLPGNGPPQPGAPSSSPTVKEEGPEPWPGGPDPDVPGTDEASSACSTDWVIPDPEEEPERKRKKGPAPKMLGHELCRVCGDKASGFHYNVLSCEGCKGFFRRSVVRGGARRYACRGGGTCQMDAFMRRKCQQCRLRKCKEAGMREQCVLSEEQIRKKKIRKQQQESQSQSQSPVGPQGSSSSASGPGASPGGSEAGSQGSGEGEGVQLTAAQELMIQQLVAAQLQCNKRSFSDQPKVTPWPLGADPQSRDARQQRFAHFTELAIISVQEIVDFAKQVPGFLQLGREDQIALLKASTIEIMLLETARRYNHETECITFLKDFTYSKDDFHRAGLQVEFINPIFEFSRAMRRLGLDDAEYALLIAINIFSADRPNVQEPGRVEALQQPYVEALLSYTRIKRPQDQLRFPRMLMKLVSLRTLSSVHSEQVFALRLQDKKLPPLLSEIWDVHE
Excerpt: as §1

Islet-1 = Islet-1 expression in Tg[Isl1:GFP] zebrafish embryos; type: in vivo; conditions: 10 μM, embryos 48 hpf
Method: Quantitative PCR, Total RNA was extracted from SN4741. cells and zebrafish treated with the compounds of interest using the RNeasy Mini Kit (Qiagen), 1 μg was treated with RQ1 RNase-free DNase (Promega) and reverse transcribed using SuperScript II Reverse Transcriptase (invitrogen) and random primers (invitrogen) (RT+reaction). Parallel reactions without reverse transcriptase enzyme were done as a control (RT−reaction), and Sybergreen real-time quantitative PCR assays were performed. Expression levels were obtained by normalization with the Value of the housekeeping gene encoding actin obtained for every sample in parallel assays.
(§2) Zebrafish Strain and Maintenance Zebrafish were raised on a 14/10 h day/night cycle and were kept at 28.5 ° C. Islet-1:GFP transgenic embryos were obtained via natural spawning and staged in hours or days post fertilization (hpf and dpt) according to Kimmel et al). Embryos older than 24 hpf were treated with 0.03% phenylthiourea (PTU) to inhibit pigmentation. MO injections were performed using splice site specific zebrafish lxi MO MO injected embryos were immediately dechorionated and transferred to a 96 well plate and exposed to dimethyl sulfoxide (DMSO) treated or ligand treated medium. Compound Exposure. Islet-1:GFP embryos were collected by natural mating and immediately (at 1 cell stage) dechorionated and transferred to a 96 well plate. Each of the compounds tested were obtained as 10 mM stock and diluted in embryo medium to a final concentration of 10 μM, and 200 μL was added to each well. DMSO or propan-2-ol treated embryo medium was taken as control. Ligand solutions were replaced every 12 h with fresh ligand solution prepared in PTU treated embryo medium. Embryos were collected at 48 hpf, fixed for 4 h at room temperature with 4% paraformaldehyde and then washed and kept in PBST. Immunocytochemistry was performed using an anti-GFP antibody and fluorescence was viewed and photographed using a Zeiss Axioplan compound microscope and a Zeiss Axiocam digital camera.

[1] = test system: Islet1+ oculomotor neurons; experiment: Islet1+ cells in mouse E11.5 brain primary cultures; type: cell-based; conditions: wild type cultures
Method: Primary Brain Cultures. Brains from E11.5 mice were manually dissected, plated on poly-D-lysine (150,000 cells/cm^2) and grown in serum-free N2 media consisting of 1:1 mixture of F12 and DMEM with 10 ng/mL insulin, 100 μg/mL apo-transferrin, 100 μM putrescine, 20 nM progesterone, 30 nM selenium, 6 mg/mL glucose, and 1 mg/mL BSA. Cells were treated for 3 days in vitro (DIV) with the compounds of interest, fixed with 4% PFA and processed for staining using appropriate antibodies.
Antibodies and Detection Procedures. Cells were fixed in 4% PFA, washed in PBS and blocked in 5% normal goat serum/PBS for 1 h at room temperature. Primary antibodies were diluted in PBS (pH 7.4), 0.3% Triton X-100, 1% BSA and incubations were carried out overnight at +4° C. or at room temperature for 2 h. The antibodies used were anti-:BrdU (1:400; Abeam), Islet-1 (1:100: Developmental Studies Hybridoma Bank), cleaved caspase-3 (Aspt 75) (1:100; Cell Signaling Technology), tyrosine hydroxylase (TH; 1:1000; Pel-Freeze) GABA (1:1,000; Sigma), Bm3a (1:250; Millipore), Nkx6.1 (1:200; Novus Biologicals), choline acetyltransferase (ChAT; 1:500; Millipore) and appropriate secondary antibodies (Jackson ImmunoResearch or Alexa). Cells positive for the corresponding marker were counted directly at the microscope at a magnification of 20×. Cells were counted in every well, in eight consecutive fields (going from one side of the well to the other, passing through the center), in three different wells per experiment and in three different experiments per condition. Random pictures of the wells were taken for every condition to document the result, and representative pictures were subsequently selected to represent the quantitative data. Photos were acquired with a Zeiss Axioplan microscope and a Hamamatsu camera C4742-95 using the Openlab software.

zebrafish embryos = experiment: Survival of transgenic zebrafish embryos on compound exposure; type: in vivo
Method: as §2

Compound | Lxrα activation, luciferase activity (fold activation) (Lxrα) | Lxrβ activation, luciferase activity (fold activation) (Lxrβ) | further results
CC(C)CCC[C@@H](C)[C@H]1CC[C@H]2[C@@H]3CC[C@H]4CC(=O)CC[C@]4(C)[C@H]3CC[C@]12C [5α-cholestan-3-one] | None of these compounds showed significant activity | – | –
CC(C)CCC[C@@H](C)[C@H]1CC[C@H]2[C@@H]3CC[C@H]4C[C@@H](O)CC[C@]4(C)[C@H]3CC[C@]12C [5α-cholestan-3β-ol] | None of these compounds showed significant activity | – | –
CC(C)CCC[C@@H](C)[C@H]1CC[C@H]2[C@@H]3[C@H](O)CC4=CC(=O)CC[C@]4(C)[C@H]3C[C@H](O)[C@]12C [7α,12α-diHCO, 7α,12α-Dihydroxycholest-4-en-3-one] | None of these compounds showed significant activity | – | –
CC(CO)CCC[C@@H](C)[C@H]1CC[C@H]2[C@@H]3[C@H](O)C=C4C[C@@H](O)CC[C@]4(C)[C@H]3CC[C@]12C (stereo partly drawn) [7α,26-diHC, 7α,26-dihydroxycholesterol] | none of which was found to show significant activity | none of which was found to show significant activity | –
CC(CO)CCC[C@@H](C)[C@H]1CC[C@H]2[C@@H]3[C@H](O)CC4=CC(=O)CC[C@]4(C)[C@H]3CC[C@]12C (stereo partly drawn) [7α,26-diHCO, 7α,26-dihydroxycholest-4-en-3-one] | none of which was found to show significant activity | none of which was found to show significant activity | –
CC(C)CCC[C@@H](C)[C@H]1CC[C@H]2[C@@H]3[C@H](O)CC4=CC(=O)CC[C@]4(C)[C@H]3CC[C@]12C [7α-HCO, 7α-Hydroxycholest-4-en-3-one] | None of these compounds showed significant activity | – | –
CC(CCC[C@@H](C)[C@H]1CC[C@H]2[C@@H]3[C@H](O)CC4=CC(=O)CC[C@]4(C)[C@H]3CC[C@]12C)C(=O)O (stereo partly drawn) [7αH,3O-CA, 7α-hydroxy-3-oxocholest-4-en-26-oic acid] | none of which was found to show significant activity | none of which was found to show significant activity | Islet-GFP expression (Islet-1): failed to regulate Islet-GFP expression
CC(CCC[C@@H](C)[C@H]1CC[C@H]2[C@@H]3[C@@H](O)CC4=CC(=O)CC[C@]4(C)[C@H]3CC[C@]12C)C(=O)O (stereo partly drawn) [7βH,3O-CA, 7β-hydroxy-3-oxocholest-4-en-26-oic acid] | none of which was found to show significant activity | none of which was found to show significant activity | –
CC(C)CC[C@@H](O)[C@@H](C)[C@H]1CC[C@H]2[C@@H]3CC=C4C[C@@H](O)CC[C@]4(C)[C@H]3CC[C@]12C [22R-HC, 22R-hydroxycholesterol, reference compound] | – | – | Lxr luciferase activity with addition of the Lxr antagonist GGPP (Lxrα; 10 μM metabolite + 10 μM GGPP): similarly blocked; Number of Islet1+ cells [1]: does not show an effect towards Islet1+ cells
CC(C)[C@@H](O)CC[C@@H](C)[C@H]1CC[C@H]2[C@@H]3CC=C4C[C@@H](O)CC[C@]4(C)[C@H]3CC[C@]12C [24S-HC, cholest-5-ene-3β,24S-diol] | activate Lxr | activate Lxr | –
C[C@@H](CO)CCC[C@@H](C)[C@H]1CC[C@H]2[C@@H]3CC=C4C[C@@H](O)CC[C@]4(C)[C@H]3CC[C@]12C [26-HC, cholest-(25R)-5-en-3β,26-diol] | had no a significant effect | had no a significant effect | Number of Islet1+ cells [1]: no effect on the number of Islet1+ cells
C[C@H](CCC(=O)O)[C@H]1CC[C@H]2[C@@H]3[C@H](O)C[C@@H]4C[C@H](O)CC[C@]4(C)[C@H]3CC[C@]12C [CDCA, chenodeoxycholic acid, reference compound] | – | – | Toxic effect on survival of the fish (zebrafish embryos): had a deleterious toxic effect which impaired the survival of the fish
CC(C)CCC[C@@H](C)[C@H]1CC[C@H]2[C@@H]3CCC4=CC(=O)CC[C@]4(C)[C@H]3CC[C@]12C [cholest-4-en-3-one] | None of these compounds showed significant activity | – | –
CC(C)CCC[C@@H](C)[C@H]1CC[C@H]2[C@@H]3C=CC4=CC(=O)CC[C@]4(C)[C@H]3CC[C@]12C [cholesta-4,6-dien-3-one] | None of these compounds showed significant activity | – | –
